In US7745152B2, “Method for determining genotoxicity” (priority 2004, dated 2010):
Where a name gives a salt, the structure may show the parent alone. Read-outs that look alike come from different tables or passages of the source. *1 amine or outer side, *2 acyl side, *3 side chain or, on linkers, in order; H or OH if unused. Where a SMILES comes first, the peptide text is derived from it. Bridges are numbered along the chain shown (N, C = ends). Roman numbers before positions name the chains, in order. [ ]: non-standard residue; d: D form. Actinocin(9to1) = Cc1c2oc3c(C)ccc(C(=O)[*:1])c3nc-2c(C(=O)[*:2])c(N)c1=O; NMeV = CN[C@H](C(=O)O)C(C)C; Sar = CNCC(=O)O

Tested on: C2C12 cells

SMILES	Lowest effective dose (mouse, 24 h) [µg/mL]	Lowest effective dose [µg/mL]	other results
O=[N+]([O-])c1ccc2c(c1)Cc1ccccc1-2 [2-nitrofluorene]			Lowest effective dose (mouse): 5.2 µg/mL
Cc1c2oc3c(C)ccc(C(=O)N[C@@H]4C(=O)N[C@H](C(C)C)C(=O)N5CCC[C@H]5C(=O)N(C)CC(=O)N(C)[C@@H](C(C)C)C(=O)O[C@@H]4C)c3nc-2c(C(=O)N[C@@H]2C(=O)N[C@H](C(C)C)C(=O)N3CCC[C@H]3C(=O)N(C)CC(=O)N(C)[C@@H](C(C)C)C(=O)O[C@@H]2C)c(N)c1=O [Actinomycin D] (I: T[dV]P[Sar][NMeV] / II: T[dV]P[Sar][NMeV]; ester I:1-I:C, II:1-II:C; linker I:N-II:N via Actinocin(9to1))		0.00075	
N.N.[Cl][Pt][Cl] [Cisplatin]		0.15	extreme block of differentiation: cell death in differentiation media: the cells begin to die after 3 days in differentiation media
CC/C(=C(/CC)c1ccc(O)cc1)c1ccc(O)cc1 [Diethylstilbestrol (DES), Diethylstilbestrol]	1.8		

Continued, in another order:

Lowest effective dose (mouse, 24 h) [µg/mL]	SMILES	Lowest effective dose [µg/mL]	other results
0.0008	O=c1[nH]cc(F)c(=O)[nH]1 [5-fluorouracil]		
0.005	COc1cccc2c1C(=O)c1c(O)c3c(c(O)c1C2=O)C[C@@](O)(C(=O)CO)C[C@@H]3O[C@H]1C[C@H](N)[C@H](O)[C@H](C)O1 [Doxorubicin HCl]		
